Source: patent publication US12544365B2, “Pharmaceutical combination of an EP4 antagonist and immune checkpoint inhibitors for the treatment of tumours” (ROTTAPHARM BIOTECH S.R.L., priority 2019, dated 2026)

How the values were obtained:
[1] = Physical and chemical stability testing of solid forms (mechanical, thermal stress)
CT26 cancer cell tumours = assay: CT26 syngeneic model of mouse colorectal cancer in Balb/c mice; type: in vivo; conditions: compounds 30 mg/kg oral daily day 7-23; anti PD-1 i.p. 20 mg/kg day 8, 10 mg/kg days 13, 19, 22
Description: Male Balb/c mice 4-6 weeks old were housed five per cage in a temperature and humidity controlled room with a 12h/12h light/dark cycle. Throughout the experiment the animals had free access to food and water. The Balb/c mice were randomly divided into 6 groups (n=15 in each group): vehicle, Compound 1, Compound 2, anti PD-1, Compound 1+anti PD-1, Compound 2+anti PD-1 group.
CT26 cells were purchased from ATCC and cultured in Dulbecco's Modified Eagle's Medium (DMEM; ThermoFisher Scientific) supplemented with 10% fetal bovine serum (FBS; Sigma Aldrich) at 37° C. in an incubator with 5% CO2. Cells were sub-cultured twice a week until the number of cells needed for inoculation was obtained.
On the day of transplantation (day 0) logarithmic growing phase cells were harvested, diluted in PBS and 10^6 cells in 0.2 ml of PBS were subcutaneously inoculated into the lateral abdominal region of each mouse using a 26G syringe.
On day 7 after inoculation the mice were randomized into the 6 treatment groups each of 15 animals receiving respectively vehicle, Compound 1, Compound 2, anti PD-1 and the combination therapies. […]
Tumour sizes (mm^3) were evaluated twice a week by using a digital caliper. The tumour volumes were calculated measuring the tumour lengths along the major and minor axis and using the formula: Volume=[[…]]/2.

[2] = tested on: PGE2 effect on TNF-α release in rat whole blood culture; assay: In vitro TNF-α release induced by LPS and modulated by PGE2, rat whole blood culture; type: cell-based; conditions: 0.1 μg/ml LPS + fixed PGE2 concentration giving about 80% inhibition, 4 hours, read-out: IC50, reversal of PGE2 effect on TNF-α release
Description: Male Wistar Han rats (250-300 g b.w., Charles River, Italy) were housed six per cage in a temperature-controlled room, set to maintain temperature within the range of 20° C. #2° C. and relative humidity within the range of 55%±10 and with a 12-h/12-h light/dark cycle. Throughout the study animals had free access to standard laboratory chow (Teklad rodent diet 2018, Harlan Laboratories, S. Pietro al Natisone, UD, Italy) and drinking water. Care and handling of the animals were in accordance with the guidelines of the Local Government and the regulations of the European Community. Authorization for experimental procedures was granted by the Italian Ministry of Health. The day of the experiments animals were anaesthetized with 2.5-3% isoflurane in O2 inside an induction chamber and blood was drawn from the abdominal aorta. Whole blood samples were collected in tubes containing 0.1-0.2U/ml heparin. […]
In samples representing basal release of the cytokine, LPS was substituted by the same volume of sterile PBS. […] The levels of TNF-α release in rat whole blood culture were evaluated using the Rat TNFalpha ELISA kit (Diaclone, France). Compared to the reference standard curve, TNF-α levels in samples were expressed as concentration (pg/ml).

[3] = tested on: TNF-α gene expression in human THP-1 macrophages; assay: TNF-α gene expression in THP-1 cells differentiated to macrophages (LPS + PGE2), RT-PCR; type: cell-based; conditions: LPS 10 ng/ml + PGE2 10 nM, 3 hours, concentration as low as 0.1 μM
Description: The human monocyte cell line THP-1, obtained from the ATCC, was grown according to the instructions provided. THP-1 cells were differentiated to macrophages with 100 nM phorbol 12-myristate 13-acetate (PMA) (Sigma Aldrich) for 4 days. Macrophages were then stimulated with lipopolysaccharide (LPS) (Sigma Aldrich) 10 ng/ml and PGE2 0.01 μM for 3 hours. Total RNA was purified using the ABI Prism 6100 Nucleic Acid PrepStation (Applied Biosystems, Foster City, CA, USA) and retrotranscribed using the High-Capacity cDNA Reverse Transcription Kit (Thermo Fisher Scientific). RT-PCR analysis was performed using the Applied Biosystems 7500 Fast Real-Time PCR System using specific TaqMan assays (number Hs00174128_m1; Thermo Fisher Scientific) and, as an endogenous control, the 18S Pre-Developed TaqMan® Assay (Thermo Fisher Scientific). The data analysis, with normalisation on 18S amplified values, was done following Thermo Fisher Scientific's specific instructions for gene expression relative quantification. All individual data are the result of at least three different analyses for each sample.
To evaluate the Compound 1 potential in counteracting the PGE2 induced inhibition of TNF-α gene expression in human macrophages, THP-1 cells were differentiated to macrophages and subsequently treated with LPS 10 ng/ml plus PGE2 10 nM+Compound 1 in the 0.01 μM to 10 μM concentrations range for 3 hours.

## O=C([O-])c1ccc(C2(NC(=O)[C@H]3CC4(CCN3Cc3ccc(C(F)(F)F)cc3)CC4)CC2)cc1.[Na+] [Compound 1, sodium (R)-4-(1-(6-(4-(trifluoromethyl)benzyl)-6-azaspiro[2.5]octane-5-carboxamido)cyclopropyl)benzoate]
[1]
  thermodynamic stability of the form: most thermodynamically stable anhydrous form
[1]; mechanical or thermal stress
  physical stability (conversion to amorphous form): more stable towards amorphization by thermal stress
CT26 cancer cell tumours
  effect on tumour growth (tumour volume): mild inhibitory effect on cancer growth starting at the second week of treatment
[2]
  IC50: 2.3 µM
[3]
  TNF-α gene expression vs cells treated with PGE2+LPS only: two to three fold increase
